Laboratory results as given in US20250114430A1, “MODIFIED PEPTIDOMIMETICS AND METHODS OF USE” (The University of North Carolina at Chapel Hill, priority 2021, published 2025).
No end group written: not given here.

Legend:
[1] = molecular target: T1, human neutrophil elastase (Homo sapiens, UniProt P08246); format: in vitro ADME
T1 sequence (P08246 30-267): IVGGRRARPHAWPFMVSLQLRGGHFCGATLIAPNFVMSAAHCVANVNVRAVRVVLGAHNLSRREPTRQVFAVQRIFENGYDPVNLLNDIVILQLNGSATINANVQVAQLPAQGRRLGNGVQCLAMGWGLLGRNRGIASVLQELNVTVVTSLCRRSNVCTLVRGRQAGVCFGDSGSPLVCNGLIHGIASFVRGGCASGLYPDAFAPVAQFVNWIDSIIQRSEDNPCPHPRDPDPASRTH
Method: Peptides were exposed to NE over time, and the reaction was stopped by addition of sivelestat. HPLC was then performed in order to determine peptide stability. N=3-4 replicates per time point.
HEK293T cells were plated and incubated for 2 hours with Fluo-4 plus or minus ELD peptides, with fluorescent images taken every 30 seconds for 2-6 minutes at excitation/emission wavelengths of 488/530 nm. […] Candidate peptides ELD604, 607, 601, and 100 were tested for resistance against protease degradation, wherein the peptides were incubated with neutrophil elastase, treated with the elastase inhibitor sivelestat at various timepoints to halt ongoing reactions, and then analyzed by HPLC (FIG. 9).
Endogenous Orai1/store operated Ca^2+ influx have been extensively studied in HEK293T cells, so this cell type was used to understand ELD607-Orai1 interactions. […] Thapsigargin is a SERCA pump inhibitor that prevents uptake of cytosolic Ca^2+ into the endoplasmic reticulum. Thapsigargin is commonly used to stimulate Orai1/store operated Ca^2+ influx. […] Dynamic light scattering (DLS) was used to evaluate binding of ELD607 to peptides of Orai1 extracellular loops. […] Thus, it was concluded that ELD607 interacts with Orai1.

HEK293T cells = assay: Inhibition of Ca^2+ influx in HEK293T cells after pre-incubation of peptide in CF sputum; format: cell-based; conditions: peptide incubated 6 h in CF sputum, then HEK293T cells, thapsigargin
[2] = tested on: SARS-CoV-2 S1 pseudovirus; format: cell-based
[3] = tested on: mouse hepatitis virus (MHV-A59; a murine coronavirus); assay: Murine coronavirus MHV-A59 infection; format: in vivo
Method: Mice were dosed intranasally with 10^6 PFU MHIV-A59 followed by vehicle (saline) or 1.0 mg/kg of ELD607 per mouse 4 d p.i. BAL and lungs were collected 6 d p.i.
ELD607 normalized leukocyte composition and viral loads in the airways after murine coronavirus infection. Coronaviruses are emerging pathogens with severe outcomes in the human population. Mice were infected with 10^6 PFU mouse hepatitis virus (MHV-A59; a murine coronavirus) intranasally. The mice were then dosed with 1.0 mg/kg ELD607 or vehicle intranasally 4 days p.i. and then 2 days after dosing with ELD607 (6 days p.i.), mice were sacrificed to collect BAL and lung homogenates.

[4] = format: in vitro ADME, human
Excerpt: ELD607 is active in ARDS patient immune cells. Pulmonary neutrophilic inflammation and increased lung neutrophil elastase levels are common in ARDS patient lungs. We therefore evaluated whether ELD607 remained stable in BAL samples patients with ARDS caused by bacterial pneumonia. […] (FIG. 27, panel A).

HEK293 T cells = assay: Cytotoxicity in HEK293 T cells (calcein); format: cell-based; conditions: 100 μM, 24 h
Method: FIG. 28 panels C and D show cell viability per arbitrary units (left) and transepithelial resistance (right) of vehicle vs. ELD607 before and after treatment.
ELD607 is non-toxic in vitro and in vivo. To investigate potential cytotoxic effects of ELD607, […] were exposed to 100 μM ELD607 for 24 h. Cytotoxicity was assessed by exposing cells to calcein to label live cells and fluorescence read by multi-plate reader. […] Primary human bronchial epithelial cultures were exposed to 1 mM ELD607 or vehicle control (saline) for 24 h. Cytotoxicity was assessed by confocal microscopy using calcein and propidium iodide to label live and dead cells respectively. […] Transepithelial resistance was also measured before and after treatment as a measure of epithelial integrity.

P. aeruginosa POA1 = assay: P. aeruginosa infection in Orai1 heterozygous mice and WT littermates; format: in vivo; conditions: 10^7 CFU/mouse, 0.5 mg/kg intranasal
Excerpt: ELD607, but not global Orai1 inhibition or steroids beneficially reduce pulmonary inflammation after P. aeruginosa infection.

[5] = tested on: E. coli lipopolysaccharide (LPS); assay: E. coli LPS acute respiratory distress syndrome (ARDS) model; format: in vivo, mice; conditions: 3 mg/kg LPS
Method: FIG. 34 panels B-D show lung injury score (FIG. 34 panel B), % weight loss (FIG. 34 panel C), and % BAL neutrophils (FIG. 34 […]) in relation to FIG. 34 panel A. Lung injury scoring system taken from Aeffner et al. Mouse Models of Acute Respiratory Distress Syndrome: A Review of Analytical Approaches, Pathologic Features, and Common Measurements. 2015 Tox Pathol.
ELD607 reduces inflammation in an acute respiratory distress syndrome (ARDS) model. Mice were intratracheally to 3 mg/kg E. coli lipopolysaccharide (LPS). 0.5 mg/kg ELD607 was instilled intranasally 1 or 6 h later. As a control, 3 mg/kg dexamethasone was given intranasally.

[6] = tested on: bleomycin-induced lung injury; assay: Bleomycin-induced lung fibrosis in mice; format: in vivo; parameters: dose or concentration left out as unconfirmed
Method: Mice were exposed to 4 doses of bleomycin as described from days 1-37, then fibrosis was allowed to form from days 38-60. The mice were then dosed daily with inhaled […] (1 mg/kg) from days 61-82. Mice were sacrificed on Day 83 and histology was performed.
ELD607 reverses fibrosis in mice. Bleomycin-exposed mice are a well-established model to study IPF. Based on ATS guidelines, mice were dosed with […] bleomycin per dose 4 times over 37 days to induce fibrosis. From day 61, mice were then treated intranasally with […] ELD607 daily for 20 days (FIG. 40 panel A). Lungs were then collected and prepped for H&E staining and fibrosis was measured using the Ashcroft scaling system.

[7] = 1.0 mg/kg intranasal 4 days p.i., read 6 days p.i.

VHDIVNMLIRG [ELD607, VHDIVNMLIRG]
stability against neutrophil elastase [1]: significant increase in stability
stability relative to a6 after exposure to human neutrophil elastase [1]: four times more stable
inhibition of Ca^2+ influx after pre-exposure to CF sputum (HEK293T cells): retained full functionality
pseudovirus infection (% DsRed-positive cells) [2]: significantly reduced infection
lung lymphocyte levels (B cells and T cells) [3, 7]: significantly reduced lung lymphocyte levels
lung monocyte and macrophage levels [3, 7]: normalized lung monocyte and macrophage levels
viral loads in the lungs and BAL ([3]; one dose 1.0 mg/kg): significantly reduced
stability in ARDS BAL [4]: remained stable over 8 h
cell viability (calcein) (HEK293 T cells): not significantly different to vehicle control
leukocyte levels in WT littermate controls (P. aeruginosa POA1): normalized leukocytes similar to naïve mice
BAL neutrophilia ([5]; 0.5 mg/kg ELD607 intranasally): attenuated BAL neutrophilia
weight loss ([5]; 0.5 mg/kg ELD607 intranasally): reduced weight loss
lung damage (lung injury score) ([5]; 0.5 mg/kg ELD607 intranasally 1 or 6 h later): significantly reduced lung damage caused by LPS
lung damage (Ashcroft) ([6]; 25 intranasally daily for 20 days from day 61): significantly less lung damage than vehicle controls
acute and chronic bleomycin-induced lung injury ([6]; lower dose of 19, different time course): reduces acute and chronic bleomycin-induced lung injury
